Results reported in patent US20130217702A1 (Richter Gedeon Nyrt., priority 2010, published 2013).
Structures can show the parent of a compound that is named as a salt.

Legend:
[1] = target: T1, recombinant human B1 receptors (Homo sapiens, UniProt P46663); assay: Functional assay: antagonist potency by cytosolic calcium measurement (plate reader fluorimeter) in CHO-B1 cells, agonist LysDABK; type: cell-based; details: CHO-B1 cells, inhibition of LysDABK (EC80)-evoked [Ca2+]i elevation; read-out: B1 func.
T1 construct: host or cells: CHO (CHO-B1)
T1 sequence (P46663 1-353): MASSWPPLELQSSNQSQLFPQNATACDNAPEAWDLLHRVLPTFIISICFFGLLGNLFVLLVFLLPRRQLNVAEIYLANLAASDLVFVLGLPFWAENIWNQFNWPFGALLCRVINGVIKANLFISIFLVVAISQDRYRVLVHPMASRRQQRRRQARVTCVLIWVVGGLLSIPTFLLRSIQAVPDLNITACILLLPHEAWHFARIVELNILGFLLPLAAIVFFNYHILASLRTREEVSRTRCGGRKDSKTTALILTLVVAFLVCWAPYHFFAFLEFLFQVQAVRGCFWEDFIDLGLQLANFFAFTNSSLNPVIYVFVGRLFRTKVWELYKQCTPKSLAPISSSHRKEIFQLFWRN
Method in brief: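 IC50 is the concentration giving half-maximal inhibition of the LysDABK (EC80) calcium response, fitted from at least three experiments. CHO cells stably expressing human B1 were dye-loaded, exposed to compound for 20-25 min, then read by fluo-4 fluorescence (ΔF/F) at 37 °C.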

[2] = target: T2, human recombinant bradykinin B1 receptor (Homo sapiens, UniProt P46663); assay: Human recombinant bradykinin B1 receptor competitive radioligand binding; details: hB1 expressed in CHO cells, [3H]-[Des-Arg10] Kallidin radioligand; read-out: B1 binding
T2 construct: host or cells: CHO cells, clone hB1-A5
T2 sequence (P46663 1-353): T1 sequence (P46663 1-353)
Method in brief: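 Competition radioligand binding on CHO-expressed hB1 membranes, using [3,4-prolyl-3,4-^3H(N)]-[Des-Arg^10] Kallidin as tracer, 15 min at 25° C. Excess Lys-des-Arg^9-Bradykinin (10 μM) set nonspecific binding. Sigmoidal fits of at least seven concentrations gave IC50, converted to Ki via Cheng-Prusoff; KD from Scatchard.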

Compound	IC50 [1]	Ki [2]
Cc1nc(-c2c(Cl)c3ccccc3n2-c2ccc(CNC(=O)C3(NC(=O)c4ccc(C#N)cc4)CC3)cc2)no1 [Example 170, N-(1-{4-[3-Chloro-2-(5-methyl-[1,2,4]oxadiazol-3-yl)-indol-1-yl]-benzylcarbamoyl}-cyclopropyl)-4-cyano-benzamide]	20 to 100 nM	< 20 nM
Cc1nc(-c2c(Cl)c3ccccc3n2-c2ccc(CNC(=O)C3(NC(=O)C=Cc4ccco4)CC3)cc2)no1 [Example 171, 1-(3-Furan-2-yl-acryloylamino)-cyclopropanecarboxylic acid 4-[3-chloro-2-(5-methyl-[1,2,4]oxadiazol-3-yl)-indol-1-yl]-benzylamide]	20 to 100 nM	< 20 nM
Cc1nc(-c2c(Cl)c3ccccc3n2-c2ccc(CNC(=O)C3(NC(=O)c4cccs4)CC3)cc2)no1 [Example 172, Thiophene-2-carboxylic acid (1-{4-[3-chloro-2-(5-methyl-[1,2,4]oxadiazol-3-yl)-indol-1-yl]-benzylcarbamoyl}-cyclopropyl)-amide]	< 20 nM	< 20 nM
CSc1ccc(C(=O)NC2(C(=O)NCc3ccc(-n4c(-c5noc(C)n5)c(Cl)c5ccccc54)cc3)CC2)s1 [Example 173, 5-Methylsulfanyl-thiophene-2-carboxylic acid (1-{4-[3-chloro-2-(5-methyl-[1,2,4]oxadiazol-3-yl)-indol-1-yl]-benzylcarbamoyl}-cyclopropyl)-amide]	20 to 100 nM	< 20 nM
Cc1nc(-c2c(Cl)c3ccccc3n2-c2ccc(CNC(=O)C3(NC(=O)c4csnn4)CC3)cc2)no1 [Example 174, [1,2,3]Thiadiazole-4-carboxylic acid (1-{4-[3-chloro-2-(5-methyl-[1,2,4]oxadiazol-3-yl)-indol-1-yl]-benzylcarbamoyl}-cyclopropyl)-amide]	< 20 nM	< 20 nM
COc1cccc(C(=O)NC2(C(=O)NCc3ccc(-n4c(-c5noc(C)n5)c(Cl)c5ccccc54)cc3)CC2)c1 [Example 175, N-(1-{4-[3-Chloro-2-(5-methyl-[1,2,4]oxadiazol-3-yl)-indol-1-yl]-benzylcarbamoyl}-cyclopropyl)-3-methoxy-benzamide]	20 to 100 nM	< 20 nM
Cc1nc(-c2c(Cl)c3ccccc3n2-c2ccc(CNC(=O)C3(NC(=O)c4cccc(I)c4)CC3)cc2)no1 [Example 176, N-(1-{4-[3-Chloro-2-(5-methyl-[1,2,4]oxadiazol-3-yl)-indol-1-yl]-benzylcarbamoyl}-cyclopropyl)-3-iodo-benzamide]	20 to 100 nM	20 to 100 nM
Cc1nc(-c2c(Cl)c3ccccc3n2-c2ccc(CNC(=O)C3(NC(=O)c4cccc(C(F)(F)F)c4)CC3)cc2)no1 [Example 177, N-(1-{4-[3-Chloro-2-(5-methyl-[1,2,4]oxadiazol-3-yl)-indol-1-yl]-benzylcarbamoyl}-cyclopropyl)-3-trifluoromethyl-benzamide]	< 20 nM	20 to 100 nM
Cc1nc(-c2c(Cl)c3ccccc3n2-c2ccc(CNC(=O)C3(NC(=O)c4cccc(F)c4)CC3)cc2)no1 [Example 178, N-(1-{4-[3-Chloro-2-(5-methyl-[1,2,4]oxadiazol-3-yl)-indol-1-yl]-benzylcarbamoyl}-cyclopropyl)-3-fluoro-benzamide]	< 20 nM	< 20 nM
Cc1cccc(C(=O)NC2(C(=O)NCc3ccc(-n4c(-c5noc(C)n5)c(Cl)c5ccccc54)cc3)CC2)c1 [Example 179, N-(1-{4-[3-Chloro-2-(5-methyl-[1,2,4]oxadiazol-3-yl)-indol-1-yl]-benzylcarbamoyl}-cyclopropyl)-3-methyl-benzamide]	20 to 100 nM	< 20 nM
Cc1nc(-c2c(Cl)c3ccccc3n2-c2ccc(CNC(=O)C3(NC(=O)c4cncc(C(F)(F)F)c4)CC3)cc2)no1 [Example 180, N-(1-{4-[3-Chloro-2-(5-methyl-[1,2,4]oxadiazol-3-yl)-indol-1-yl]-benzylcarbamoyl}-cyclopropyl)-5-trifluoromethyl-nicotinamide]	< 20 nM	< 20 nM
Cc1nc(-c2c(Cl)c3ccccc3n2-c2ccc(CNC(=O)C3(NC(=O)c4conc4C)CC3)cc2)no1 [Example 181, 3-Methyl-isoxazole-4-carboxylic acid (1-{4-[3-chloro-2-(5-methyl-[1,2,4]oxadiazol-3-yl)-indol-1-yl]-benzylcarbamoyl}-cyclopropyl)-amide]	< 20 nM	< 20 nM
Cc1nnc(-c2c(Cl)c3ccccc3n2-c2ccc(CNC(=O)C3(NC(=O)c4cnc5ccccc5c4)CC3)cc2)o1 [Example 182, Quinoline-3-carboxylic acid (1-{4-[3-chloro-2-(5-methyl-[1,3,4]oxadiazol-2-yl)-indol-1-yl]-benzylcarbamoyl}-cyclopropyl)-amide]	< 20 nM	< 20 nM
Cc1nnc(-c2c(Cl)c3ccccc3n2-c2ccc(CNC(=O)C3(NC(=O)CC(F)(F)F)CC3)cc2)o1 [Example 183, 1-(3,3,3-Trifluoro-propionylamino)-cyclopropanecarboxylic acid 4-[3-chloro-2-(5-methyl-[1,3,4]oxadiazol-2-yl)-indol-1-yl]-benzylamide]	20 to 100 nM	20 to 100 nM
Cc1nnc(-c2c(Cl)c3ccccc3n2-c2ccc(CNC(=O)C3(NC(=O)c4cncnc4)CC3)cc2)o1 [Example 184, Pyrimidine-5-carboxylic acid (1-{4-[3-chloro-2-(5-methyl-[1,3,4]oxadiazol-2-yl)-indol-1-yl]-benzylcarbamoyl}-cyclopropyl)-amide]	< 20 nM	< 20 nM
Cc1ncc(C(=O)NC2(C(=O)NCc3ccc(-n4c(-c5noc(C)n5)c(Cl)c5ccccc54)cc3)CC2)cn1 [Example 185, 2-Methyl-pyrimidine-5-carboxylic acid (1-{4-[3-chloro-2-(5-methyl-[1,2,4]oxadiazol-3-yl)-indol-1-yl]-benzylcarbamoyl}-cyclopropyl)-amide]	< 20 nM	< 20 nM
Cc1nc(-c2c(Cl)c3ccccc3n2-c2ccc(CNC(=O)C3(NC(=O)c4cccc(N)c4)CC3)cc2)no1 [Example 186, 3-Amino-N-(1-{4-[3-chloro-2-(5-methyl-[1,2,4]oxadiazol-3-yl)-indol-1-yl]-benzylcarbamoyl}-cyclopropyl)-benzamide hydrochloride]	< 20 nM	< 20 nM
NC(=O)c1c(Cl)c2ccccc2n1-c1ccc(CNC(=O)C2(NC(=O)C(F)(F)F)CC2)cc1 [Example 187, 3-Chloro-1-[4-({[1-(2,2,2-trifluoro-acetylamino)-cyclopropanecarbonyl]-amino}-methyl)-phenyl]-1H-indole-2-carboxylic acid amide]	20 to 100 nM	100 to 500 nM
COc1cc(C(=O)NC2(C(=O)NCc3ccc(-n4c(C(N)=O)c(Cl)c5ccccc54)cc3)CC2)on1 [Example 188, 3-Chloro-1-{4-[({1-[(3-methoxy-isoxazole-5-carbonyl)-amino]-cyclopropane-carbonyl}-amino)-methyl]-phenyl}-1H-indole-2-carboxylic acid amide]	< 20 nM	20 to 100 nM
Cc1nc(-c2c(Cl)c3cc(F)ccc3n2-c2ccc(CNC(=O)C3(NC(=O)C(F)(F)F)CC3)cc2)no1 [Example 189, 1-(2,2,2-Trifluoro-acetylamino)-cyclopropanecarboxylic acid 4-[3-chloro-5-fluoro-2-(5-methyl-[1,2,4]oxadiazol-3-yl)-indol-1-yl]-benzylamide]	< 20 nM	< 20 nM
